# Key:
# Assay in all cases: relative viability (nuclei count vs DMSO), 5 days (fraction); higher = more cells survive
# Shikonin + Pemetrexed = compound: CC(C)=CC[C@@H](O)C1=CC(=O)c2c(O)ccc(O)c2C1=O [Shikonin] + Nc1nc2[nH]cc(CCc3ccc(C(=O)N[C@@H](CCC(=O)O)C(=O)O)cc3)c2c(=O)[nH]1 [Pemetrexed] (partner 0.2 µM)
# Summary of the method: (§1)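 Lung cancer cell lines were pin-tool dosed in 1536-well plates on the day after seeding, with either a lone drug or a fixed anchor-drug dose plus five library-drug doses (not always all listed) in √10 steps. Nuclei were counted on 4× images after 5 days. Relative viability is the ratio of treated-well to vehicle-well nuclei counts, with each value a median of duplicate plates.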
# [1] = compound: CC(C)N(CCCNC(=O)Nc1ccc(C(C)(C)C)cc1)C[C@H]1O[C@@H](n2ccc3c(N)ncnc32)[C@H](O)[C@@H]1O + CS(=O)(=O)CCNCc1ccc(-c2ccc3ncnc(Nc4ccc(OCc5cccc(F)c5)c(Cl)c4)c3c2)o1 [Lapatinib] (partner 2 µM)
# Summary of the method: as §1
# Shikonin + Linsitinib = compound: CC(C)=CC[C@@H](O)C1=CC(=O)c2c(O)ccc(O)c2C1=O [Shikonin] + C[C@]1(O)C[C@@H](c2nc(-c3ccc4ccc(-c5ccccc5)nc4c3)c3c(N)nccn32)C1 [Linsitinib] (partner 1 µM)
# Summary of the method: as §1
# Shikonin + Dasatinib = compound: CC(C)=CC[C@@H](O)C1=CC(=O)c2c(O)ccc(O)c2C1=O [Shikonin] + Cc1nc(Nc2ncc(C(=O)Nc3c(C)cccc3Cl)s2)cc(N2CCN(CCO)CC2)n1 [Dasatinib] (partner 0.075 µM)
# Summary of the method: as §1
Cell Line,relative viability (Shikonin + Pemetrexed; first compound 0.01 µM),relative viability (Shikonin + Pemetrexed; first compound 0.1 µM),relative viability (Shikonin + Pemetrexed; first compound 0.3162 µM),relative viability (Shikonin + Pemetrexed; first compound 1 µM),relative viability ([1]; first compound 0.08 µM),relative viability ([1]; first compound 0.253 µM),relative viability ([1]; first compound 0.8 µM),relative viability ([1]; first compound 2.53 µM),relative viability ([1]; first compound 8 µM),relative viability (Shikonin + Linsitinib; first compound 0.01 µM),relative viability (Shikonin + Linsitinib; first compound 0.1 µM),relative viability (Shikonin + Linsitinib; first compound 0.3162 µM),relative viability (Shikonin + Linsitinib; first compound 1 µM),relative viability (Shikonin + Dasatinib; first compound 0.01 µM),relative viability (Shikonin + Dasatinib; first compound 0.1 µM),relative viability (Shikonin + Dasatinib; first compound 0.3162 µM),relative viability (Shikonin + Dasatinib; first compound 1 µM)
PC-14,0.15,0.137,0.125,0.135,0.287,0.284,0.355,0.332,0.316,0.978,0.997,1.12,0.983,0.224,0.258,0.263,0.24
NCI-H2126,0.758,0.716,0.777,0.656,0.721,0.735,0.681,0.718,0.742,0.71,0.814,0.752,0.699,0.599,0.595,0.656,0.685
BEN,0.765,0.856,0.78,0.87,0.71,0.67,0.71,0.628,0.625,1.07,0.962,1.12,1.07,0.302,0.407,0.303,0.386
EKVX,0.438,0.435,0.472,0.362,0.205,0.202,0.185,0.206,0.212,1.04,0.962,1.29,1.09,0.554,0.442,0.5,0.618
LXF-289,0.892,0.959,0.955,0.945,0.867,0.956,0.863,0.943,0.821,1.07,0.911,1,0.996,0.213,0.214,0.231,0.229
NCI-H2087,0.675,0.706,0.626,0.69,1.03,1.16,0.825,1.01,0.996,1.27,1.3,0.927,0.839,0.868,1.1,0.83,0.893
NCI-H1793,0.808,1.05,0.798,1.11,0.607,,0.554,0.599,0.636,0.894,0.778,0.891,1.07,0.419,0.376,0.381,0.461
LC-2-ad,0.297,0.273,0.269,0.282,0.937,0.906,0.925,0.966,0.835,0.769,0.884,0.833,0.812,0.528,0.586,0.418,0.893
COR-L 105,1.1,1.09,1.05,1.02,0.365,0.317,0.417,0.403,0.355,1.1,0.971,0.845,0.655,0.329,0.329,0.307,0.335
NCI-H1355,1.13,1.15,1.02,1.06,0.94,0.975,,1,0.857,0.764,0.943,0.887,0.855,0.6,0.676,0.721,0.787
H3255,0.592,0.563,0.605,0.577,0.242,0.255,0.231,0.253,0.216,0.999,1.05,1.06,1.08,0.285,0.331,0.325,0.348
NCI-H2009,1.11,1.06,1.09,1.05,1.01,0.818,0.716,0.888,0.792,1.23,1.25,1.14,0.848,0.281,0.301,0.239,0.134
NCI-H1734,0.413,0.479,0.434,0.382,0.987,1.06,0.976,1.13,0.995,0.839,0.91,0.939,0.857,0.512,0.499,0.538,0.477
HOP-62,0.432,0.353,0.349,0.278,1.02,0.797,0.858,0.958,0.764,0.994,0.806,0.987,0.807,0.66,0.593,0.701,0.747
LOU-NH91,0.367,0.381,0.381,0.458,0.643,0.731,,0.83,0.773,0.904,0.999,1.06,0.974,0.551,0.551,0.639,0.584
NCI-H23,0.662,0.832,0.704,0.766,1,,1.22,1.21,0.955,0.592,0.489,0.696,0.533,0.643,0.883,0.78,0.944
RERF-LC-KJ,0.47,0.512,0.465,0.549,0.894,0.841,0.861,0.911,0.829,0.985,0.896,0.867,0.953,0.991,0.975,0.834,0.661
NCI-H1437,0.332,0.37,0.291,0.354,0.703,0.77,0.773,0.722,0.715,1.28,1.05,1.23,1.11,0.377,0.385,0.367,0.531

# Reference: the supplement of paper PMC10307832
